From PubChem BioAssay (NCI)
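Cultured in 96-well plates, cells were exposed to test compound for 48 hours across five concentrations. GI50 marks 50% less growth. TGI: concentration producing complete growth inhibition.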

Assays:
Assay in all cases: NCI-60 cell line screen, 48 h
SF-268 CNS = tested on: SF-268 CNS
SN12C renal = tested on: SN12C renal
SK-MEL-5 melanoma = tested on: SK-MEL-5 melanoma
UACC-257 melanoma = tested on: UACC-257 melanoma
MDA-MB-435 = tested on: MDA-MB-435
IGROV1 ovarian = tested on: IGROV1 ovarian
MALME-3M melanoma = tested on: MALME-3M melanoma
UO-31 renal = tested on: UO-31 renal
MCF7 breast = tested on: MCF7 breast
HCT-15 colon = tested on: HCT-15 colon
M14 melanoma = tested on: M14 melanoma
KM12 colon = tested on: KM12 colon
SR leukemia = tested on: SR leukemia
U251 CNS = tested on: U251 CNS
SNB-75 CNS = tested on: SNB-75 CNS
MOLT-4 leukemia = tested on: MOLT-4 leukemia
NCI-H226 lung = tested on: NCI-H226 lung
NCI/ADR-RES ovarian = tested on: NCI/ADR-RES ovarian
CCRF-CEM leukemia = tested on: CCRF-CEM leukemia
HCC-2998 colon = tested on: HCC-2998 colon
RXF 393 renal = tested on: RXF 393 renal
TK-10 renal = tested on: TK-10 renal
T-47D breast = tested on: T-47D breast
HS 578T breast = tested on: HS 578T breast
NCI-H23 lung = tested on: NCI-H23 lung
CAKI-1 renal = tested on: CAKI-1 renal
786-0 renal = tested on: 786-0 renal
MDA-MB-231 breast = tested on: MDA-MB-231 breast
NCI-H460 lung = tested on: NCI-H460 lung
HL-60(TB) leukemia = tested on: HL-60(TB) leukemia
SK-OV-3 ovarian = tested on: SK-OV-3 ovarian
SW-620 colon = tested on: SW-620 colon
SK-MEL-28 melanoma = tested on: SK-MEL-28 melanoma
K-562 leukemia = tested on: K-562 leukemia
UACC-62 melanoma = tested on: UACC-62 melanoma
OVCAR-8 ovarian = tested on: OVCAR-8 ovarian
ACHN renal = tested on: ACHN renal
RPMI-8226 leukemia = tested on: RPMI-8226 leukemia
HT29 colon = tested on: HT29 colon
DU-145 prostate = tested on: DU-145 prostate
OVCAR-5 ovarian = tested on: OVCAR-5 ovarian
SK-MEL-2 melanoma = tested on: SK-MEL-2 melanoma
PC-3 prostate = tested on: PC-3 prostate
HCT-116 colon = tested on: HCT-116 colon
OVCAR-4 ovarian = tested on: OVCAR-4 ovarian
NCI-H522 lung = tested on: NCI-H522 lung
BT-549 breast = tested on: BT-549 breast
EKVX NSCLC = tested on: EKVX NSCLC
A498 renal = tested on: A498 renal
SNB-19 CNS = tested on: SNB-19 CNS
SF-539 CNS = tested on: SF-539 CNS
HOP-62 NSCLC = tested on: HOP-62 NSCLC
LOX IMVI melanoma = tested on: LOX IMVI melanoma
A549 NSCLC = tested on: A549 NSCLC
COLO 205 colon = tested on: COLO 205 colon
SF-295 CNS = tested on: SF-295 CNS

Structure (SMILES): Nc1ncc(-c2ccc3ncnc(N4CCc5cc(F)c(F)cc54)c3c2)cn1
- GI50 (SF-268 CNS): 1.8 µM
- TGI (SF-268 CNS): > 100 µM
- GI50 (SN12C renal): 2.11 µM
- TGI (SN12C renal): > 100 µM
- GI50 (SK-MEL-5 melanoma): 6.1 µM
- TGI (SK-MEL-5 melanoma): > 100 µM
- GI50 (UACC-257 melanoma): 7.3 µM
- TGI (UACC-257 melanoma): > 100 µM
- GI50 (MDA-MB-435): 2.73 µM
- TGI (MDA-MB-435): > 100 µM
- GI50 (IGROV1 ovarian): 0.459 µM
- TGI (IGROV1 ovarian): 3.34 µM
- GI50 (MALME-3M melanoma): 1.08 µM
- TGI (MALME-3M melanoma): > 100 µM
- GI50 (UO-31 renal): 0.396 µM
- TGI (UO-31 renal): > 100 µM
- GI50 (MCF7 breast): 1.23 µM
- TGI (MCF7 breast): > 100 µM
- GI50 (HCT-15 colon): 2.28 µM
- TGI (HCT-15 colon): > 100 µM
- GI50 (M14 melanoma): 3.53 µM
- TGI (M14 melanoma): > 100 µM
- GI50 (KM12 colon): 3.92 µM
- TGI (KM12 colon): > 100 µM
- GI50 (SR leukemia): 1.82 µM
- TGI (SR leukemia): > 100 µM
- GI50 (U251 CNS): 4.81 µM
- TGI (U251 CNS): > 100 µM
- GI50 (SNB-75 CNS): 0.455 µM
- TGI (SNB-75 CNS): 4.03 µM
- GI50 (MOLT-4 leukemia): 3.32 µM
- TGI (MOLT-4 leukemia): > 100 µM
- GI50 (NCI-H226 lung): 3 µM
- TGI (NCI-H226 lung): > 100 µM
- GI50 (NCI/ADR-RES ovarian): 3.91 µM
- TGI (NCI/ADR-RES ovarian): > 100 µM
- GI50 (CCRF-CEM leukemia): 2.38 µM
- TGI (CCRF-CEM leukemia): > 100 µM
- GI50 (HCC-2998 colon): 3.08 µM
- TGI (HCC-2998 colon): > 100 µM
- GI50 (RXF 393 renal): 0.381 µM
- TGI (RXF 393 renal): 3.15 µM
- GI50 (TK-10 renal): 0.709 µM
- TGI (TK-10 renal): > 100 µM
- GI50 (T-47D breast): 0.858 µM
- TGI (T-47D breast): > 100 µM
- GI50 (HS 578T breast): 0.751 µM
- TGI (HS 578T breast): 4.66 µM
- GI50 (NCI-H23 lung): 4.76 µM
- TGI (NCI-H23 lung): > 100 µM
- GI50 (CAKI-1 renal): 0.89 µM
- TGI (CAKI-1 renal): > 100 µM
- GI50 (786-0 renal): 3.42 µM
- TGI (786-0 renal): > 100 µM
- GI50 (MDA-MB-231 breast): 1.87 µM
- TGI (MDA-MB-231 breast): > 100 µM
- GI50 (NCI-H460 lung): 2.11 µM
- TGI (NCI-H460 lung): > 100 µM
- GI50 (HL-60(TB) leukemia): 5.52 µM
- TGI (HL-60(TB) leukemia): > 100 µM
- GI50 (SK-OV-3 ovarian): 1.66 µM
- TGI (SK-OV-3 ovarian): > 100 µM
- GI50 (SW-620 colon): 6.86 µM
- TGI (SW-620 colon): > 100 µM
- GI50 (SK-MEL-28 melanoma): 3.26 µM
- TGI (SK-MEL-28 melanoma): > 100 µM
- GI50 (K-562 leukemia): > 100 µM
- TGI (K-562 leukemia): > 100 µM
- GI50 (UACC-62 melanoma): 1.37 µM
- TGI (UACC-62 melanoma): > 100 µM
- GI50 (OVCAR-8 ovarian): 3.06 µM
- TGI (OVCAR-8 ovarian): > 100 µM
- GI50 (ACHN renal): 1.73 µM
- TGI (ACHN renal): > 100 µM
- GI50 (RPMI-8226 leukemia): 0.559 µM
- TGI (RPMI-8226 leukemia): > 100 µM
- GI50 (HT29 colon): 2.9 µM
- TGI (HT29 colon): > 100 µM
- GI50 (DU-145 prostate): 2.38 µM
- TGI (DU-145 prostate): > 100 µM
- GI50 (OVCAR-5 ovarian): 1.53 µM
- TGI (OVCAR-5 ovarian): > 100 µM
- GI50 (SK-MEL-2 melanoma): 2.44 µM
- TGI (SK-MEL-2 melanoma): 12.3 µM
- GI50 (PC-3 prostate): 1.44 µM
- TGI (PC-3 prostate): > 100 µM
- GI50 (HCT-116 colon): 4.51 µM
- TGI (HCT-116 colon): > 100 µM
- GI50 (OVCAR-4 ovarian): 1.76 µM
- TGI (OVCAR-4 ovarian): > 100 µM
- GI50 (NCI-H522 lung): 4.94 µM
- TGI (NCI-H522 lung): > 100 µM
- GI50 (BT-549 breast): 1.86 µM
- TGI (BT-549 breast): > 100 µM
- GI50 (EKVX NSCLC): 1.7 µM
- TGI (EKVX NSCLC): > 100 µM
- GI50 (A498 renal): 0.251 µM
- TGI (A498 renal): 2.13 µM
- GI50 (SNB-19 CNS): 5.35 µM
- TGI (SNB-19 CNS): > 100 µM
- GI50 (SF-539 CNS): 2.49 µM
- TGI (SF-539 CNS): > 100 µM
- GI50 (HOP-62 NSCLC): 1.36 µM
- TGI (HOP-62 NSCLC): > 100 µM
- GI50 (LOX IMVI melanoma): 1.77 µM
- TGI (LOX IMVI melanoma): 14.1 µM
- GI50 (A549 NSCLC): 2.35 µM
- TGI (A549 NSCLC): > 100 µM
- GI50 (COLO 205 colon): 5.77 µM
- TGI (COLO 205 colon): > 100 µM
- GI50 (SF-295 CNS): 2.3 µM
- TGI (SF-295 CNS): > 100 µM
